The structures appear in SMILES notation.

The IC50 is the concentration that gives 50% inhibition.

The assay addresses Paired box protein Pax-2 (Homo sapiens, UniProt Q02962). Put plainly: Inhibition of pax2 (unknown origin) in human SK-OV-3 cells measured after 24 hrs by immunoblotting analysis. (In general: Immunoblotting shows a protein as a band on a membrane.)

Paired box protein Pax-2, sequence (Q02962 whole entry): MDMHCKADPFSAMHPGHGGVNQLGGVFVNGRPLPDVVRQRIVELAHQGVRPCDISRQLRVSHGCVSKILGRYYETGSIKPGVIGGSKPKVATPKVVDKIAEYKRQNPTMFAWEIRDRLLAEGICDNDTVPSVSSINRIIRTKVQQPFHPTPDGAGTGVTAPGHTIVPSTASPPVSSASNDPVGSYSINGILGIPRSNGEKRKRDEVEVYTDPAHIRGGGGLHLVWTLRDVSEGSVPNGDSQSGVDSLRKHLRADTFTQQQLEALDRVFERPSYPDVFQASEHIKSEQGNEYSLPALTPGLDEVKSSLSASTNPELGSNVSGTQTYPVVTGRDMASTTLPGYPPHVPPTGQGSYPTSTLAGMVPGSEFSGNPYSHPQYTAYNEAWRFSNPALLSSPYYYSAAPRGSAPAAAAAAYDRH

For `Cc1ccc(C)c(N2CCN(c3c(C)c(C)nc4ncnn34)CC2)c1`, the midpoint of inhibition, the IC50, lay at 1500 nM.

The record behind these values is BindingDB's records for doi:10.1016/j.ejmech.2023.115101 (n/a, 2023).
